Assay results published in PMC5218480 (PLoS ONE, 2017).

System: MV-4-11 cells
Assay: Gene expression microarray analysis (Affymetrix PrimeView) and GSEA
Assay type: cell-based, human
Design: RFU PODN (11730768_x_at) / Fold change /veh PODN (11730768_x_at) / RFU LINC00158 (11744669_a_at) / Fold change /veh LINC00158 (11744669_a_at) / RFU DUSP10 (11751237_a_at) / Fold change /veh DUSP10 (11751237_a_at) / RFU ID3 (11757404_x_at) / Fold change /veh ID3 (11757404_x_at) / RFU PLEKHG5 (11737974_s_at) / Fold change /veh PLEKHG5 (11737974_s_at) / RFU LRRC4B (11730491_at) / Fold change /veh LRRC4B (11730491_at) / RFU GIMAP4 (11747438_a_at) / Fold change /veh GIMAP4 (11747438_a_at) / RFU KRT8 (11758183_x_at) / Fold change /veh KRT8 (11758183_x_at) / RFU CNN1 (11734310_a_at) / Fold change /veh CNN1 (11734310_a_at) / RFU VPS37D (11726825_at) / Fold change /veh VPS37D (11726825_at) / RFU C10orf10 (11716522_x_at) / Fold change /veh C10orf10 (11716522_x_at) / RFU KIR2DL2 /// KIR2DL4 /// KIR2DL5A /// KIR2DL5B /// KIR2DS1 /// KIR2DS2 /// KIR2DS3 /// KIR2DS4 /// KIR3DL3 /// KIR3DL3 /// KIR3DS1 (11738374_at) / Fold change /veh KIR2DL2 /// KIR2DL4 /// KIR2DL5A /// KIR2DL5B /// KIR2DS1 /// KIR2DS2 /// KIR2DS3 /// KIR2DS4 /// KIR3DL3 /// KIR3DL3 /// KIR3DS1 (11738374_at) / RFU C1QL1 (11718748_at) / Fold change /veh C1QL1 (11718748_at) / RFU TMPRSS4 (11747572_a_at) / Fold change /veh TMPRSS4 (11747572_a_at) / RFU HAMP (11756126_x_at) / Fold change /veh HAMP (11756126_x_at) / RFU RNFT2 (11725882_a_at) / Fold change /veh RNFT2 (11725882_a_at) / RFU NR4A2 (11747474_a_at) / Fold change /veh NR4A2 (11747474_a_at) / RFU ABCC12 (11746883_a_at) / Fold change /veh ABCC12 (11746883_a_at) / RFU TMEM136 (11760407_x_at) / Fold change /veh TMEM136 (11760407_x_at) / RFU CLDN22 /// WWC2 (11732394_at) / Fold change /veh CLDN22 /// WWC2 (11732394_at) / RFU HLA-DPB1 (11760878_x_at) / Fold change /veh HLA-DPB1 (11760878_x_at) / RFU SPINT1 (11716480_a_at) / Fold change /veh SPINT1 (11716480_a_at) / RFU GAP43 (11754022_s_at) / Fold change /veh GAP43 (11754022_s_at) / RFU A4GNT (11735810_at) / Fold change /veh A4GNT (11735810_at) / RFU PRB3 (11715151_x_at) / Fold change /veh PRB3 (11715151_x_at) / RFU TUBB4B (11761932_at) / Fold change /veh TUBB4B (11761932_at) / RFU CAPN14 (11732068_a_at) / Fold change /veh CAPN14 (11732068_a_at) / RFU TMCC2 (11721928_a_at) / Fold change /veh TMCC2 (11721928_a_at) / RFU IRGQ (11745062_a_at) / Fold change /veh IRGQ (11745062_a_at) / RFU FAM174B (11720279_a_at) / Fold change /veh FAM174B (11720279_a_at) / RFU TMPRSS4 (11748680_a_at) / Fold change /veh TMPRSS4 (11748680_a_at) / RFU FAM212B (11763350_a_at) / Fold change /veh FAM212B (11763350_a_at) / RFU PLEKHG5 (11743358_a_at) / Fold change /veh PLEKHG5 (11743358_a_at) / RFU ZSCAN30 (11745921_a_at) / Fold change /veh ZSCAN30 (11745921_a_at) / RFU CMKLR1 (11741424_a_at) / Fold change /veh CMKLR1 (11741424_a_at) / RFU LOC101060620 /// MAPK8IP1 (11723275_at) / Fold change /veh LOC101060620 /// MAPK8IP1 (11723275_at) / RFU SPTSSB (11747773_x_at) / Fold change /veh SPTSSB (11747773_x_at) / RFU PRSS12 (11739890_at) / Fold change /veh PRSS12 (11739890_at) / RFU BIN1 (11741810_x_at) / Fold change /veh BIN1 (11741810_x_at) / RFU WNT11 (11732464_a_at) / Fold change /veh WNT11 (11732464_a_at) / RFU C10orf10 (11716521_a_at) / Fold change /veh C10orf10 (11716521_a_at) / RFU C5orf56 (11738089_at) / Fold change /veh C5orf56 (11738089_at) / RFU CYB561 (11721691_x_at) / Fold change /veh CYB561 (11721691_x_at) / RFU ANKRD19P (11752326_a_at) / Fold change /veh ANKRD19P (11752326_a_at) / RFU OR2T12 /// OR2T33 /// OR2T8 (11738714_s_at) / Fold change /veh OR2T12 /// OR2T33 /// OR2T8 (11738714_s_at) / RFU VCAN (11748164_a_at) / Fold change /veh VCAN (11748164_a_at) / RFU JSRP1 (11732532_at) / Fold change /veh JSRP1 (11732532_at) / RFU KRTAP10-11 (11738290_x_at) / Fold change /veh KRTAP10-11 (11738290_x_at) / RFU MYO3A (11730013_a_at) / Fold change /veh MYO3A (11730013_a_at) / RFU EBF3 (11725865_a_at) / Fold change /veh EBF3 (11725865_a_at) / RFU CAMK2N1 (11719241_x_at) / Fold change /veh CAMK2N1 (11719241_x_at) / RFU C5orf56 (11738088_a_at) / Fold change /veh C5orf56 (11738088_a_at) / RFU OLFML3 (11715873_a_at) / Fold change /veh OLFML3 (11715873_a_at) / RFU LOC100653217 /// NTM (11731650_a_at) / Fold change /veh LOC100653217 /// NTM (11731650_a_at) / RFU MAPK11 (11762145_a_at) / Fold change /veh MAPK11 (11762145_a_at) / RFU FIZ1 (11724087_x_at) / Fold change /veh FIZ1 (11724087_x_at) / RFU OASL (11726364_x_at) / Fold change /veh OASL (11726364_x_at) / RFU SOX15 (11748057_x_at) / Fold change /veh SOX15 (11748057_x_at) / RFU CD79A (11719716_a_at) / Fold change /veh CD79A (11719716_a_at) / RFU HIST1H1D (11736915_at) / Fold change /veh HIST1H1D (11736915_at) / RFU CASKIN2 (11723855_a_at) / Fold change /veh CASKIN2 (11723855_a_at) / RFU LOC730098 (11760151_x_at) / Fold change /veh LOC730098 (11760151_x_at) / RFU OR4N2 (11742367_at) / Fold change /veh OR4N2 (11742367_at) / RFU PRRT2 (11749266_a_at) / Fold change /veh PRRT2 (11749266_a_at) / RFU SNX32 (11753110_a_at) / Fold change /veh SNX32 (11753110_a_at) / RFU CDHR5 (11726645_a_at) / Fold change /veh CDHR5 (11726645_a_at) / RFU RCAN1 (11760418_a_at) / Fold change /veh RCAN1 (11760418_a_at) / RFU FAM167A (11723789_a_at) / Fold change /veh FAM167A (11723789_a_at) / RFU FAM26E (11764081_at) / Fold change /veh FAM26E (11764081_at) / RFU ISYNA1 (11749810_s_at) / Fold change /veh ISYNA1 (11749810_s_at) / RFU ACY1 (11761880_at) / Fold change /veh ACY1 (11761880_at) / RFU 11764098_at / Fold change /veh 11764098_at / RFU SAMD14 (11745864_x_at) / Fold change /veh SAMD14 (11745864_x_at) / RFU NPB (11741838_a_at) / Fold change /veh NPB (11741838_a_at) / RFU TMPRSS6 (11731388_a_at) / Fold change /veh TMPRSS6 (11731388_a_at) / RFU KRTAP10-2 (11738614_at) / Fold change /veh KRTAP10-2 (11738614_at) / RFU ARHGAP8 /// PRR5-ARHGAP8 (11727945_x_at) / Fold change /veh ARHGAP8 /// PRR5-ARHGAP8 (11727945_x_at) / RFU KRTAP5-7 /// NADSYN1 (11734609_at) / Fold change /veh KRTAP5-7 /// NADSYN1 (11734609_at) / RFU RASL12 (11751679_a_at) / Fold change /veh RASL12 (11751679_a_at) / RFU CDKN2B (11736163_a_at) / Fold change /veh CDKN2B (11736163_a_at) / RFU PRF1 (11729649_at) / Fold change /veh PRF1 (11729649_at) / RFU, ZNF638 /// ZNF638-IT1 / Fold change vs veh, ZNF638 /// ZNF638-IT1 / RFU, PANK3 / Fold change vs veh, PANK3 / RFU, SH3YL1 / Fold change vs veh, SH3YL1 / RFU, ZEB2 / Fold change vs veh, ZEB2 / RFU, NRIP1 / Fold change vs veh, NRIP1 / RFU, PTTG1IP / Fold change vs veh, PTTG1IP / RFU, CAPN2 / Fold change vs veh, CAPN2 / RFU, MED14 / Fold change vs veh, MED14 / RFU, SNORA58 / Fold change vs veh, SNORA58 / RFU, C1orf63 / Fold change vs veh, C1orf63 / RFU, LRRFIP1 / Fold change vs veh, LRRFIP1 / RFU, NDUFAF7 / Fold change vs veh, NDUFAF7 / RFU, SLC12A2 / Fold change vs veh, SLC12A2 / RFU, IBTK / Fold change vs veh, IBTK / RFU, ESF1 / Fold change vs veh, ESF1 / Fold change vs veh, TMEM50B / RFU, TAOK1 / Fold change vs veh, TAOK1 / RFU, ACBD3 / Fold change vs veh, ACBD3 / RFU, TMA16 / Fold change vs veh, TMA16 / RFU, RWDD3 / Fold change vs veh, RWDD3 / RFU, BCAT1 / Fold change vs veh, BCAT1 / RFU, EDEM3 / Fold change vs veh, EDEM3 / RFU, TMEM33 / Fold change vs veh, TMEM33 / RFU, WDR75 / Fold change vs veh, WDR75 / RFU, AHCTF1 / Fold change vs veh, AHCTF1 / RFU, TFRC / Fold change vs veh, TFRC / RFU, ZDHHC17 / Fold change vs veh, ZDHHC17 / RFU, NOM1 / Fold change vs veh, NOM1 / RFU, ARL8B / Fold change vs veh, ARL8B / RFU, ZBTB11 / Fold change vs veh, ZBTB11 / RFU, TAMM41 / Fold change vs veh, TAMM41 / RFU, KIAA1704 /// LOC100996395 / Fold change vs veh, KIAA1704 /// LOC100996395 / RFU, ING1 / Fold change vs veh, ING1 / RFU, TRMT61B / Fold change vs veh, TRMT61B / RFU, FUBP3 / Fold change vs veh, FUBP3 / RFU, TP53 / Fold change vs veh, TP53 / RFU, TNKS2 / Fold change vs veh, TNKS2 / RFU, ZFP14 / Fold change vs veh, ZFP14 / RFU, ACTR2 / Fold change vs veh, ACTR2 / RFU, PPP3R1 / Fold change vs veh, PPP3R1 / RFU, PIK3R1 / Fold change vs veh, PIK3R1 / RFU, HNRNPA1 / Fold change vs veh, HNRNPA1 / RFU, RNF170 / Fold change vs veh, RNF170 / RFU, ZNF28 / Fold change vs veh, ZNF28 / RFU, RNGTT / Fold change vs veh, RNGTT / RFU, OGT / Fold change vs veh, OGT / RFU, BRD1 / Fold change vs veh, BRD1 / RFU, MARS / Fold change vs veh, MARS / RFU, ZNF655 / Fold change vs veh, ZNF655 / RFU, FAHD1 / Fold change vs veh, FAHD1 / RFU, BDP1 / Fold change vs veh, BDP1 / RFU, LRRCC1 / Fold change vs veh, LRRCC1 / RFU, ARID1A / Fold change vs veh, ARID1A / RFU, ZNF146 / Fold change vs veh, ZNF146 / RFU, ZNF330 / Fold change vs veh, ZNF330 / RFU, GPN3 / Fold change vs veh, GPN3 / RFU, C9orf123 / Fold change vs veh, C9orf123 / RFU, N4BP2L2 / Fold change vs veh, N4BP2L2 / RFU, ARFIP1 / Fold change vs veh, ARFIP1 / RFU, FAM179B / Fold change vs veh, FAM179B / RFU, BCL10 / Fold change vs veh, BCL10 / RFU, UHRF1BP1L / Fold change vs veh, UHRF1BP1L / RFU, BET1 / Fold change vs veh, BET1 / RFU, CNOT2 / Fold change vs veh, CNOT2 / RFU, ZNF268 / Fold change vs veh, ZNF268 / Fold change vs veh, ZNF507 / RFU, DGCR2 / Fold change vs veh, DGCR2 / RFU, WDSUB1 / Fold change vs veh, WDSUB1 / Fold change vs veh, HSP90B1 /// MIR3652 / RFU, ADSS / Fold change vs veh, ADSS / RFU, GK / Fold change vs veh, GK / RFU, ZNF148 / Fold change vs veh, ZNF148 / RFU, TAF9 / Fold change vs veh, TAF9 / RFU, SLC1A5 / Fold change vs veh, SLC1A5 / RFU, SLMO2 / Fold change vs veh, SLMO2 / RFU, ABCC4 / Fold change vs veh, ABCC4 / RFU, LOC101060439 /// RAP1B / Fold change vs veh, LOC101060439 /// RAP1B / RFU, RFX7 / Fold change vs veh, RFX7 / RFU, GTPBP10 / Fold change vs veh, GTPBP10 / RFU, CNEP1R1 / Fold change vs veh, CNEP1R1 / RFU, BIVM-ERCC5 /// ERCC5 / Fold change vs veh, BIVM-ERCC5 /// ERCC5 / RFU, ILF3 / Fold change vs veh, ILF3 / RFU 11762660_at / Fold change /veh 11762660_at / RFU VCAN (11757783_s_at) / Fold change /veh VCAN (11757783_s_at) / RFU DDX43 (11728927_at) / Fold change /veh DDX43 (11728927_at) / RFU KRT8 (11758188_x_at) / Fold change /veh KRT8 (11758188_x_at) / RFU NKD1 (11759106_at) / Fold change /veh NKD1 (11759106_at) / RFU SRD5A1 (11742802_a_at) / Fold change /veh SRD5A1 (11742802_a_at) / RFU TPSAB1 /// TPSB2 (11721975_s_at) / Fold change /veh TPSAB1 /// TPSB2 (11721975_s_at) / RFU GSTM3 (11746129_a_at) / Fold change /veh GSTM3 (11746129_a_at) / RFU IL23R (11737362_x_at) / Fold change /veh IL23R (11737362_x_at) / RFU TMEM51 (11727254_a_at) / Fold change /veh TMEM51 (11727254_a_at) / RFU PIWIL2 (11732686_x_at) / Fold change /veh PIWIL2 (11732686_x_at) / RFU ORM1 (11744905_x_at) / Fold change /veh ORM1 (11744905_x_at) / RFU CCDC152 (11743942_at) / Fold change /veh CCDC152 (11743942_at) / RFU ECM1 (11717891_a_at) / Fold change /veh ECM1 (11717891_a_at) / RFU IL23R (11748794_a_at) / Fold change /veh IL23R (11748794_a_at) / RFU TNFAIP8L3 (11732012_x_at) / Fold change /veh TNFAIP8L3 (11732012_x_at) / RFU MBOAT4 (11741988_at) / Fold change /veh MBOAT4 (11741988_at) / RFU 11764193_at / Fold change /veh 11764193_at / RFU TMEM53 (11763286_at) / Fold change /veh TMEM53 (11763286_at) / RFU MAGEB2 (11727129_at) / Fold change /veh MAGEB2 (11727129_at) / RFU TMEM200A (11744735_a_at) / Fold change /veh TMEM200A (11744735_a_at) / RFU CCDC152 (11751479_a_at) / Fold change /veh CCDC152 (11751479_a_at) / RFU FAM211A (11726209_a_at) / Fold change /veh FAM211A (11726209_a_at) / RFU RGS16 (11746705_a_at) / Fold change /veh RGS16 (11746705_a_at) / RFU VCAN (11755009_s_at) / Fold change /veh VCAN (11755009_s_at) / RFU RHOB (11743442_s_at) / Fold change /veh RHOB (11743442_s_at) / RFU RGS16 (11720943_a_at) / Fold change /veh RGS16 (11720943_a_at) / RFU RGS16 (11720944_at) / Fold change /veh RGS16 (11720944_at) / RFU, VPS4B / Fold change vs veh, VPS4B / RFU, CREB1 / Fold change vs veh, CREB1 / RFU, DNAJC13 / Fold change vs veh, DNAJC13 / RFU, GNAQ / Fold change vs veh, GNAQ / RFU, CDK5R1 / Fold change vs veh, CDK5R1 / RFU, ZRANB3 / Fold change vs veh, ZRANB3 / RFU, CUL4A / Fold change vs veh, CUL4A / RFU, CCNY / Fold change vs veh, CCNY / RFU, UFL1 / Fold change vs veh, UFL1 / RFU, COG3 / Fold change vs veh, COG3 / RFU, DIAPH2 / Fold change vs veh, DIAPH2 / RFU, SKA2 / Fold change vs veh, SKA2 / RFU, AFF3 / Fold change vs veh, AFF3 / RFU, LMF1 / Fold change vs veh, LMF1 / RFU, IPO11 / Fold change vs veh, IPO11 / RFU, DFFB / Fold change vs veh, DFFB / RFU, FOXP1 / Fold change vs veh, FOXP1 / RFU, CARD8 / Fold change vs veh, CARD8 / RFU, STRN3 / Fold change vs veh, STRN3 / RFU, ADK / Fold change vs veh, ADK / RFU, RASSF2 / Fold change vs veh, RASSF2 / RFU, WIPF1 / Fold change vs veh, WIPF1 / RFU, LARP1B / Fold change vs veh, LARP1B / RFU, RASA1 / Fold change vs veh, RASA1 / RFU, RB1 / Fold change vs veh, RB1 / RFU, PPFIA1 / Fold change vs veh, PPFIA1 / RFU, MAT2A / Fold change vs veh, MAT2A / RFU, CCT5 / Fold change vs veh, CCT5 / RFU, WDR92 / Fold change vs veh, WDR92 / RFU, CUX1 / Fold change vs veh, CUX1 / RFU, TTC7A / Fold change vs veh, TTC7A / RFU, TMEM135 / Fold change vs veh, TMEM135 / RFU, DEPTOR / Fold change vs veh, DEPTOR / RFU, CPM / Fold change vs veh, CPM / RFU, DNAJB6 / Fold change vs veh, DNAJB6 / RFU, CACNA2D3 / Fold change vs veh, CACNA2D3 / RFU, DTX4 / Fold change vs veh, DTX4 / RFU, TFCP2 / Fold change vs veh, TFCP2 / RFU, GMCL1 /// GMCL1P1 / Fold change vs veh, GMCL1 /// GMCL1P1 / RFU, AEBP2 / Fold change vs veh, AEBP2 / RFU, SNHG1 /// SNORD22 /// SNORD25 /// SNORD26 /// SNORD27 /// SNORD28 /// SNORD29 /// SNORD31 / Fold change vs veh, SNHG1 /// SNORD22 /// SNORD25 /// SNORD26 /// SNORD27 /// SNORD28 /// SNORD29 /// SNORD31 / Fold change (Aza/veh), C12orf56 (ProbeSet 11735607_a_at) / Fold change (ACY-1035/veh), C12orf56 (ProbeSet 11735607_a_at) / Fold change (Aza/veh), FGFR1OP (ProbeSet 11751329_s_at) / Fold change (ACY-1035/veh), FGFR1OP (ProbeSet 11751329_s_at) / Fold change (Aza/veh), VPS36 (ProbeSet 11739960_a_at) / Fold change (ACY-1035/veh), VPS36 (ProbeSet 11739960_a_at) / RFU SYPL1 (11715823_x_at) / Fold change /veh SYPL1 (11715823_x_at) / RFU IGFBP7 (11715501_s_at) / Fold change /veh IGFBP7 (11715501_s_at) / RFU REEP3 (11722064_at) / Fold change /veh REEP3 (11722064_at) / RFU IGLL1 (11728026_x_at) / Fold change /veh IGLL1 (11728026_x_at): dose or concentration left out as unconfirmed
Settings: ProbeSet 11755436_x_at; LIST B

Nc1ncn([C@@H]2O[C@H](CO)[C@@H](O)[C@H]2O)c(=O)n1 [azacitidine]
Fold change vs veh, ARID1A: 1.10
